# Data as given in patent US6664036B1, “Homogeneous single-part color developer per color film processing and method of using same” (priority 2002, dated 2003).
# Experiment: Solubility of Color Developing Agents CD-2 and CD-3 free base with co-solvent
# Type: physicochemical
# Parameters: unit not given here
# Conditions: free base form, same manner as Example 1
# Description: The co-solvent shown in TABLE I below were tested for their ability to solubilize KODAK Color Developing Agent CD-4 in free base form, in a solution matrix similar to conventional color developing concentrates. KODAK Color Developing Agent CD-4 was prepared in free base form by neutralizing a saturated solution of KODAK Color Developing Agent CD-4 disulfate salt with a stoichiometric quantity of 45% potassium hydroxide. The resulting mixture was stirred and allowed to separate into two layers, the KODAK Color Developing Agent CD-4 free base oil being in the top layer. The top layer was then drawn off for use in the solubility test.
# A solution was prepared containing approximately 90 g/l solution of the various co-solvents using a stock solution containing 233 g/l of potassium carbonate, 84.5 g/l of potassium bicarbonate and 67 g/l of potassium sulfite at pH 10.4. Free acid co-solvents were neutralized with a stoichiometric quantity of 45% potassium hydroxide before the test solution was prepared. KODAK Color Developing Agent CD-4 in free base was then added to each test solution with stirring, and the quantity was monitored by weight until precipitation occurred. Using the final volume of the saturated solution and the amount of color developing agent added, the solubility of the color developing agent was calculated.
# The solubility of KODAK Color Developing Agents CD-2 and CD-3 were tested in the same manner described in Example 1 for KODAK Color Developing Agent CD-4.
# [1] = co-solvent Diethylene glycol 90 g/l
# [2] = co-solvent Sodium Benzoate 85-88 g/l
structure (smiles),measurement,setting,value
"CCN(CC)c1ccc(N)c(C)c1.Cl [CD-2, 4-(N,N-diethyl)-2-methylaniline hydrochloride]",Color Developing Agent Solubility,[1],<4
same,Color Developing Agent Solubility,[2],12
"CCN(CCNS(C)(=O)=O)c1ccc(N)c(C)c1.CCN(CCNS(C)(=O)=O)c1ccc(N)c(C)c1.O=S(=O)(O)O.O=S(=O)(O)O.O=S(=O)(O)O [CD-3, 4-(N-ethyl-N-methanesulfonamidoethyl)-2-methylaniline sesquisulfate]",Color Developing Agent Solubility,[1],<4
same,Color Developing Agent Solubility,[2],66
